Data on 15 compounds can be found in patent US8278294B2, “Substituted isoquinoline and isoquinolinone derivatives as inhibitors of Rho-kinase” (Sanofi, priority 2006, dated 2012).

One may read the IC50 as the concentration needed to halve the response being measured.

T1 sequence (O75116 11-552): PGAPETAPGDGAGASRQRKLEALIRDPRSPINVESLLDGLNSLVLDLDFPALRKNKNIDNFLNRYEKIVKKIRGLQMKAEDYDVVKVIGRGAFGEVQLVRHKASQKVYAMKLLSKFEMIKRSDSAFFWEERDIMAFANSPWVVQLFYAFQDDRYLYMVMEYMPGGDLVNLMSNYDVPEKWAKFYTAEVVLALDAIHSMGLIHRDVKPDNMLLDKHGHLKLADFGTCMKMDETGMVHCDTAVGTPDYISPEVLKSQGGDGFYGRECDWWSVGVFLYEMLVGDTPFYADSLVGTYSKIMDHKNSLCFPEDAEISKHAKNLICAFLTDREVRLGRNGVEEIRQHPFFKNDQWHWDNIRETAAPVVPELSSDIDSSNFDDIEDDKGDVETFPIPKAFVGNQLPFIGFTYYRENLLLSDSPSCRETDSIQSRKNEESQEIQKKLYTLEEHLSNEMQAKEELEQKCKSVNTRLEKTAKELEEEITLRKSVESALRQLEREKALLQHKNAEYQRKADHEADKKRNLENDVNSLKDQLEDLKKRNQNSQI

The test concerns the target T1, human recombinant ROCK II (Homo sapiens, UniProt O75116).
T1 construct: recombinant human ROCK-II residues 11-552; His6 (N); purchased Upstate Ltd., Dundee, UK
Nature of the test: Determination of Rho kinase inhibition (Caliper peptide phosphorylation assay). To be noted: negative decadal logarithm of the IC50; ROCK II residues 11-552, fluorescein peptide substrate, ATP, 60 min at 32° C.; salt or free base as obtained in the examples. It is filed as biochemical. The method, then:
Determination of Rho Kinase Inhibition
To measure Rho-kinase inhibition, IC50 values were determined according to the following protocol:
Active human recombinant ROCK II (N-terminal His6-tagged recombinant human ROCK-II residues 11-552) was purchased from Upstate Ltd., Dundee, UK. The peptide substrate, Fluorescein-AKRRRLSSLRA-COOH, was obtained from JPT Peptide Technologies, Berlin, Germany. Adenosine-5′-triphosphate (ATP), bovine serum albumine (BSA), dimethylsulphoxide (DMSO), 4-(2-Hydroxyethyl)piperazine-1-ethanesulfonic acid (Hepes), Brij-35 and dithiothreitol (DTT) were purchased from Sigma-Aldrich, Munich, Germany. Tris(hydroxymethyl)-aminomethane (Tris), magnesium chloride, NaOH, 1M HCl and EDTA were obtained from Merck Biosciences, Darmstadt, Germany. “Complete” protease inhibitor was from Roche Diagnostics, Mannheim, Germany.
Test compounds were diluted to the appropriate concentrations in buffer 1 (25 mM Tris-HCl, pH 7.4, 5 mM MgCl2, 2 mM DTT, 0.02% (w/v) BSA and 3% DMSO). The ROCK II enzyme was diluted to a concentration of 100 ng/ml in buffer 2 (25 mM Tris-HCl, pH 7.4, 5 mM MgCl2, 2 mM DTT and 0.02% (w/v) BSA). The peptide substrate and ATP were diluted to concentrations of 3 μM and 120 μM, respectively, in the buffer 2. Two μl of the compound solution were mixed with 2 μl of the diluted enzyme in a 384-well small volume microtiter plate (Greiner, Bio-One, Frickenhausen, Germany), and the kinase reaction was initiated by addition of 2 μl of the solution containing peptide substrate and ATP. After 60 min incubation at 32° C., the reaction was stopped by addition of 20 μl of a solution containing 100 mM Hepes-NaOH, pH 7.4, 0.015% (v/v) Brij-35, 45 mM EDTA and 0.227% chip coating reagent 1 (Caliper Lifescience Inc, Hopkinton, Mass.). Phosphorylation of the substrate peptide was then detected on a Caliper 3000 instrument essentially as described by Pommereau et al (J. Biomol. Screening 9(5), 409-416, 2004). Separation conditions were as follows: Pressure −1.3 psi, upstream voltage −1562 V, downstream voltage −500 V, sample sip time 200 ms. Positive controls (buffer 1 instead of compound) and negative controls (buffer 1 instead of compound and buffer 2 instead of ROCK II) were run in parallel on each plate.
The following products/compounds were tested in said assay by using the respective form (salt or free base) obtained as in the examples described above and the following activities were measured.
In the case of `O=C([C@@H]1CCCN1)N1CCC(Oc2cc3cc[nH]c(=O)c3cc2Cl)CC1` [Example 15, 7-Chloro-6-[1-((S)-pyrrolidine-2-carbonyl)-piperidin-4-yloxy]-2H-isoquinolin-1-one], the IC50 was not above 1000 nM. Next, `Cc1c[nH]c(=O)c2ccc(OC3CCN(C[C@@H](N)CO)CC3)c(F)c12` [Example 75, 6-[1-((R)-2-Amino-3-hydroxy-propyl)-piperidin-4-yloxy]-5-fluoro-4-methyl-2H-isoquinolin-1-one]: 1000 to 10000 nM. Consider `Cc1cc2c(=O)[nH]ccc2cc1OC[C@@H]1CCNC1` [Example 69, 7-Methyl-6-((R)-1-pyrrolidin-3-ylmethoxy)-2H-isoquinolin-1-one], for which the IC50 is not above 1000 nM. On to `O=c1[nH]ccc2cc(O[C@@H]3CCN(Cc4ccccc4)C3)c(Cl)cc12` [Example 66, 6-((R)-1-Benzyl-pyrrolidin-3-yloxy)-7-chloro-2H-isoquinolin-1-one], for which the IC50 is not above 1000 nM. For the compound `NC1(C(=O)N2CCC(Oc3cc4cc[nH]c(=O)c4cc3Cl)CC2)CC1` [Example 19, 6-[1-(1-Amino-cyclopropanecarbonyl)-piperidin-4-yloxy]-7-chloro-2H-isoquinolin-1-one], the IC50 was 1000 to 10000 nM. On to `O=c1[nH]ccc2cc(O[C@H]3CCN(Cc4ccccc4)C3)c(Cl)cc12` [Example 67, 6-((S)-1-Benzyl-pyrrolidin-3-yloxy)-7-chloro-2H-isoquinolin-1-one], for which the IC50 is 1000 to 10000 nM. For the compound `Cc1cc2c(=O)[nH]ccc2cc1OC1CCCNCC1` (stereo not drawn) [Example 68, 6-(Azepan-4-yloxy)-7-methyl-2H-isoquinolin-1-one], the IC50 was not above 1000 nM. Turning to `CN(C)CC(=O)N1CCC(Oc2cc3cc[nH]c(=O)c3cc2Cl)CC1` [Example 16, 7-Chloro-6-[1-(2-dimethylamino-acetyl)-piperidin-4-yloxy]-2H-isoquinolin-1-one], the 50% inhibitory concentration (IC50) was not above 1000 nM. Next, `Cc1cc2c(=O)[nH]ccc2cc1O[C@H]1CCNC1` [Example 70, 7-Methyl-6-((S)-pyrrolidin-3-yloxy)-2H-isoquinolin-1-one]: not above 1000 nM; `N[C@@H](Cc1ccc(Cl)cc1)C(=O)N1CCC(Oc2cc3cc[nH]c(=O)c3cc2Cl)CC1` [Example 22, 6-{1-[(S)-2-Amino-3-(4-chloro-phenyl)-propionyl]-piperidin-4-yloxy}-7-chloro-2H-isoquinolin-1-one]: not above 1000 nM; `O=c1[nH]ccc2cc(OC3CCCNCC3)c(Cl)cc12` (stereo not drawn) [Example 55, 6-(Azepan-4-yloxy)-7-chloro-2H-isoquinolin-1-one]: not above 1000 nM. Turning to `C[C@@H](N)C(=O)N1CCC(Oc2cc3cc[nH]c(=O)c3cc2Cl)CC1` [Example 11, 6-[1-(2-Amino-propionyl)-piperidin-4-yloxy]-7-chloro-2H-isoquinolin-1-one], the half-maximal inhibitory concentration (IC50) is not above 1000 nM. As to `NCC(=O)N1CCC(Oc2ccc3c(=O)[nH]ccc3c2)CC1` [Example 24, 6-[1-(2-Amino-acetyl)-piperidin-4-yloxy]-2H-isoquinolin-1-one], the half-inhibitory concentration (IC50) is not above 1000 nM.

With `O=c1[nH]ccc2cc(OC3CNC3)c(Cl)cc12` [Example 58, 6-(Azetidin-3-yloxy)-7-chloro-2H-isoquinolin-1-one], the IC50 is not above 1000 nM. For `CCCNC(=O)CN1CCC(Oc2cc3cc[nH]c(=O)c3cc2Cl)CC1` [Example 46, 2-[4-(7-Chloro-1-oxo-1,2-dihydro-isoquinolin-6-yloxy)-piperidin-1-yl]-N-propyl-acetamide], the IC50 is not above 1000 nM.
